Data on four compounds can be found in US12298319B2, “Method for measuring alpha value of muscarinic M1 receptor positive allosteric modulators” (Takeda Pharmaceutical Company Limited, priority 2017, dated 2025).

For one data set, the target named is T1, human M1R (Homo sapiens, UniProt P11229).
T1 sequence (P11229 1-460): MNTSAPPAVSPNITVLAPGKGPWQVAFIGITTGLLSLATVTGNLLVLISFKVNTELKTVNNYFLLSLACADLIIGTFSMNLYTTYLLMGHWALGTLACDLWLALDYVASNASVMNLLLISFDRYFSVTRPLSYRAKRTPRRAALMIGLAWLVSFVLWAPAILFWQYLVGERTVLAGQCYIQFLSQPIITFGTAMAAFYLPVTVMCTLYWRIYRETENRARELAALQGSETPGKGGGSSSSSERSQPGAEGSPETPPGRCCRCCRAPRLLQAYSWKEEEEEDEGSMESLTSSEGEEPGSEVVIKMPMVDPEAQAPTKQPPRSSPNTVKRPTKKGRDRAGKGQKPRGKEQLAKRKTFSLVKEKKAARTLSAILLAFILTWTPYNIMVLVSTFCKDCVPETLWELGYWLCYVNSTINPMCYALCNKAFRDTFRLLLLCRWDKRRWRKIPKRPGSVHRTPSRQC
Put plainly: Ca2+ flux assay in CHO-K1 cells expressing human M1 receptors (EC20 ACh). In kind it is cell-based. Also noted: expressed in transfected cells. The note with it: for EC50: potentiating EC20 ACh, read-out: IP value for human M1R. The protocol: CHO-K1 cells expressing human M1 receptors were plated on a 96-well black clear bottom plate (Corning, New York, NY) at 30,000 cells/well, and cultured at 37° C. and 5% CO2 for 1 day. The medium was removed and the cells were incubated with calcium dye buffer (HBSS (Life Technologies, Carlsbad, CA), 20 mM HEPES (Life Technologies), 0.1% fatty acid-free BSA (Wako), 0.08% pluronic F127 (Dojindo Laboratories, Kumamoto, Japan), 2.5 μg/mL Fluo-4 (Dojindo Laboratories), 1.25 mM probenecid (Dojindo Laboratories)) for 30 min at 37° C. and 5% CO2. After 30 min incubation at room temperature, the cells were stimulated with various concentrations of test compounds dissolved in assay buffer (HBSS (Life Technologies), 20 mM HEPES (Life Technologies), 0.1% fatty acid-free BSA (Wako)) containing EC20 concentrations (0.8-1 nM) of ACh and Ca^2+ response was measured using CeilLux (PerkinElmer). For determination of positive allosteric modulation activity of M1PAMs, the response to EC20 ACh was set as the 0% response and the response to 10 μM ACh was set as the 100% response. The potency of M1PAMs was shown as the value of inflection point (IP). IP value and 95% confidence intervals were calculated by XLfit of GraphPad Prism 5 Software (GraphPad Software Inc., LaJolla, CA, USA) from the data expressed as % of control.
Background: Calcium assays in cells follow changes in intracellular calcium, usually with a dye or a luminescent sensor.

Data set [1] in a line: Plasma and brain concentration in samples of in vivo IP1 assay. More on the design: species or system mouse. Particulars: for concentration at 3 h: mouse, oral, mean±SD. The protocol: Plasma and brain concentration of Compound D in sample of in vivo IP1 assay at 3 h after oral treatment. Results represent the mean±SD. n=10 per group.
Plasma and brain concentration of Compound C in sample of in vivo IP1 assay at 3 h after oral treatment. Results represent the mean±SD. n=10 per group.

The subject of the next data set is rats. Nature of the data set: Assessment of cholinergic side effects in rats. Particulars: SD, rat, in vivo, po, 240 min. How it is done:
SD Rats were placed individually into observation cages and acclimated for at least 1 h. […] The severity of diarrhea was scored as follows: 0, normal pellets; 1, wet but formed feces; 2, swollen or mucous feces; 3, severe watery diarrhea. For diarrhea, the number of rats and mice, in which more than or equal to 2 was scored, was counted. For fasciculation, the number of rats with marked fasciculation of both the upper and lower limbs was counted. For lacrimation, the number of rats, in which moderate to marked discharge (severer lacrimation than fluid around eyes) was induced, was counted. For salivation, the number of rats with severe salivation, but not just noticeably wet around mouth, was induced was counted. The maximum score during the observation was adopted.
For diarrhea, the number of rats scored more than or equal to 2 was counted. For fasciculation, the number of rats with marked fasciculation of both the upper and lower limbs was counted. For lacrimation, the number of rats in which moderate to marked discharge (severer lacrimation than fluid around eyes) was counted. For salivation, the number of rats with severe salivation, but not just noticeably wet around mouth, was counted. The maximum score during the observation was adopted. Data were presented as the number of incidence per total rats.
For diarrhea, the number of rats in which loose or mucous stool, or diarrhea was induced was counted. For fasciculation, the number of rats with marked fasciculation of both the upper and lower limbs was counted. For lacrimation, the number of rats in which moderate to marked discharge (severe lacrimation than fluid around eyes) was caused was counted. For salivation, the number of rats with severe salivation, but not just noticeably wet around mouth was counted. The maximum score during the observation was adopted. Data were presented as the number of incidence per total rats.

The next data set deals with M3R (Homo sapiens, UniProt P20309). Nature of the data set: Ca2+ flux assay in CHO-K1 cells expressing human M3R. The class given is cell-based. Also noted: expressed in transfected cells; host or cells: CHO-K1. Particulars: read-out: IP for M3R.
Data set [2] relates to scopolamine-induced cognitive deficits in mice. Put plainly: Y-maze task, scopolamine-induced cognitive deficits. In kind it is in vivo, mouse. Particulars: for scopolamine-induced cognitive deficits in Y-maze task: 5-min measurement. The protocol: The Y-maze apparatus has a three-arm maze with equal angles between all arms and made of black colored acrylic. Each arm consisted of 40 cm length, 4 cm width, and 12 cm walls. The Y-maze was located in a sound-attenuated room and illuminated at 10 lux. Compound B (10 or 30 mg/kg) and Compound A (1, 3 or 10 mg/kg) were pretreated orally at 60 min prior to the testing. After 30 min, memory impairment was induced by administering scopolamine (0.3 or 1 mg/kg, as hydrobromide salt, s.c.). At 30 min after the administration of scopolamine, mice were placed in the Y-maze and then spontaneous alternation performance was assessed visually for 5 to 8 min. Each animal underwent one trial. A mouse was considered to have entered an arm when all four paws were positioned in one third of the arm runway from the center of the Y maze. Alternations were defined as successive entries into each of the three arms on overlapping triplet sets, and alternation rate, expressed as a percentage, referred to the ratio of actual (total alternations) to possible alternations (total arm entries−2)×100.

Like-named read-outs stand apart in the source and are kept apart here.

Chain of M3R (P20309 whole entry): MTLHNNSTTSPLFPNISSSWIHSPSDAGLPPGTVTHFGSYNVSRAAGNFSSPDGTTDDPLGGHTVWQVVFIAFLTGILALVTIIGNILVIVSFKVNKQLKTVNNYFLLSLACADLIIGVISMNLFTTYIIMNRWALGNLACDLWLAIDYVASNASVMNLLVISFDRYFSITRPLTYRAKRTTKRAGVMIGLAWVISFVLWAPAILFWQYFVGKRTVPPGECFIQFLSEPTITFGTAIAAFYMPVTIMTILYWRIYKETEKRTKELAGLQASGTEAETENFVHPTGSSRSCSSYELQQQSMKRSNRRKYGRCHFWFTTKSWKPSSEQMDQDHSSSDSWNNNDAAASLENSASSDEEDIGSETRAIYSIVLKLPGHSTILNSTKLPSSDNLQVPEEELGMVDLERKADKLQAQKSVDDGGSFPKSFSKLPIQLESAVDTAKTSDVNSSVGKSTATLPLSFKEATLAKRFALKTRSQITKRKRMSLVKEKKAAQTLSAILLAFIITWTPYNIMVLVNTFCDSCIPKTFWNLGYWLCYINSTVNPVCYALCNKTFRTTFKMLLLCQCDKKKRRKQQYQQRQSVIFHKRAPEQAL

`Cn1cc(-c2ccc(Cc3cc4c(=O)n([C@H]5CCCC[C@@H]5O)cnc4c4ccccc34)cn2)cn1` [Compound C, 3-((1S,2S)-2-hydroxycyclohexyl)-6-((6-(1-methyl-1H-pyrazol-4-yl)pyridin-3-yl)methyl)benzo[h]quinazoline-4(3H)-one, reference compound]: the EC50 on human M1R was 0.62 nM; at M3R, greater than 1000 nM. Further, the “differences in brain concentration between wild-type and M1R KO mice” value in data set [1] (10 mg/kg p.o.) is listed as “No significant differences”. Moreover, the concentration at 3 h in data set [1] (brain, 10 mg/kg, 10 mg/kg p.o., M1KO mice, read-out: Brain concentration) came out at 62.7 ± 9.1 ng/g; in data set [1] (brain, 10 mg/kg, 10 mg/kg p.o., wild-type mice, read-out: Brain concentration) it was 63.7 ± 16.8 ng/g; in data set [1] (plasma, 10 mg/kg, 10 mg/kg p.o., M1KO mice, read-out: Plasma concentration), 6130 ± 1160 ng/mL; in data set [1] (plasma, 10 mg/kg, 10 mg/kg p.o., wild-type mice, read-out: Plasma concentration), 2340 ± 628 ng/mL. Moreover, the Diarrhea in the data set with rats (0.01 mg/kg) was 0/6 (0%); in the data set on rats (0.03 mg/kg), 0/6 (0%); with rats (0.1 mg/kg), 3/6 (50%); in the data set with rats (0.3 mg/kg) it was 4/6 (67%). The Fasciculation in the data set with rats (0.01 mg/kg), with rats (0.03 mg/kg), in the data set with rats (0.1 mg/kg) and with rats (0.3 mg/kg) was 0/6 (0%) in each case. For the same compound, the Lacrimation with rats (0.01 mg/kg), in the data set with rats (0.03 mg/kg), in the data set with rats (0.1 mg/kg) and with rats (0.3 mg/kg) was 0/6 (0%) throughout. Also, the Myosis with rats (0.01 mg/kg), in the data set with rats (0.03 mg/kg), in the data set with rats (0.1 mg/kg) and in the data set on rats (0.3 mg/kg) was 0/6 (0%) each time. In addition, the Salivation with rats (0.01 mg/kg), in the data set with rats (0.03 mg/kg), in the data set on rats (0.1 mg/kg) and in the data set on rats (0.3 mg/kg) was 0/6 (0%) throughout. In addition, in the data set with rats, the “minimal diarrhea inducing dose in rats” value is reported as 0.1 mg/kg.

As for `Cc1c(Cc2ccc(-n3cccn3)cc2)cc2c(c1F)CN([C@H]1COCC[C@@H]1O)C2=O` [Compound D, 4-fluoro-2-[(3S,4S)-4-hydroxytetrahydro-2H-pyran-3-yl]-5-methyl-6-[4-(1H-pyrazol-1-yl)benzyl]-2,3-dihydro-1H-isoindol-1-one], the EC50 on human M1R is 2.7 nM; at M3R, greater than 10000 nM. The “M1R selectivity over other human muscarinic receptor subtypes” value at human M1R (vs M2-M5R) is given as “not less than 3700 fold”. Besides, in data set [1] (3 mg/kg p.o.), the “differences in PK profile between wild-type and M1R KO mice” value is “No significant differences”. Also, the concentration at 3 h was determined as 370 ± 50 ng/g in data set [1] (brain, 3 mg/kg, 3 mg/kg p.o., M1KO mice, read-out: Brain concentration); 350 ± 80 ng/g in data set [1] (brain, 3 mg/kg, 3 mg/kg p.o., wild-type mice, read-out: Brain concentration); 3260 ± 260 ng/mL in data set [1] (plasma, 3 mg/kg, 3 mg/kg p.o., M1KO mice, read-out: Plasma concentration); 3110 ± 490 ng/mL in data set [1] (plasma, 3 mg/kg, 3 mg/kg p.o., wild-type mice, read-out: Plasma concentration). In addition, the Diarrhea with rats (1 mg/kg) is reported as 0/6 (0%); in the data set on rats (3 mg/kg) it was 1/6 (17%); in the data set with rats (10 mg/kg), 5/6 (83%); with rats (30 mg/kg) it was 4/6 (67%). Further, the Fasciculation in the data set with rats (1 mg/kg), with rats (3 mg/kg), with rats (10 mg/kg) and in the data set with rats (30 mg/kg) was 0/6 (0%) in each case. Also, the Lacrimation in the data set on rats (1 mg/kg), with rats (3 mg/kg), in the data set on rats (10 mg/kg) and with rats (30 mg/kg) was 0/6 (0%) each time. The Myosis in the data set on rats (1 mg/kg), in the data set with rats (3 mg/kg), in the data set with rats (10 mg/kg) and with rats (30 mg/kg) was 0/6 (0%) each time. Further, the Salivation in the data set on rats (1 mg/kg), in the data set on rats (3 mg/kg), in the data set on rats (10 mg/kg) and in the data set with rats (30 mg/kg) was 0/6 (0%) throughout. Also, in the data set on rats, the “minimal diarrhea inducing dose in rats” value is listed as 10 mg/kg.

For the compound `Cn1ccc(-c2ccc(CN3Cc4cccc(O[C@H]5CCCC[C@@H]5O)c4C3=O)cc2)n1` [Compound A, 7-(((1S,2S)-2-hydroxycyclohexyl)oxy)-2-(4-(1-methyl-1H-pyrazol-3-yl)benzyl)isoindolin-1-one], in data set [2] (10 mg/kg p.o.), the “scopolamine-induced cognitive deficits in Y-maze task” value was “trends to improve”. Moreover, the “scopolamine-induced decrease in spontaneous alternation ratio in Y-maze task” value in data set [2] (10 mg/kg p.o., 8 min measurement) was “significantly ameliorated”.

As to `Cn1cc(-c2ccc(CN3Cc4cccc(Oc5c(F)cccc5C#N)c4C3=O)cc2)cn1` [Compound B, 3-fluoro-2-((2-(4-(1-methyl-1H-pyrazol-4-yl)benzyl)-3-oxo-2,3-dihydro-1H-isoindol-4-yl)oxy)benzonitrile], the “scopolamine-induced cognitive deficits in Y-maze task” value in data set [2] (30 mg/kg p.o.) is recorded as “significantly ameliorated”.
